Active and inactive are the calls of the source. The rule behind the calls is not given here.
What was measured:
[1] = molecular target: T1, Inhibitor of nuclear factor kappa-B kinase subunit epsilon (Homo sapiens, UniProt Q14164)
T1 sequence (Q14164 whole entry): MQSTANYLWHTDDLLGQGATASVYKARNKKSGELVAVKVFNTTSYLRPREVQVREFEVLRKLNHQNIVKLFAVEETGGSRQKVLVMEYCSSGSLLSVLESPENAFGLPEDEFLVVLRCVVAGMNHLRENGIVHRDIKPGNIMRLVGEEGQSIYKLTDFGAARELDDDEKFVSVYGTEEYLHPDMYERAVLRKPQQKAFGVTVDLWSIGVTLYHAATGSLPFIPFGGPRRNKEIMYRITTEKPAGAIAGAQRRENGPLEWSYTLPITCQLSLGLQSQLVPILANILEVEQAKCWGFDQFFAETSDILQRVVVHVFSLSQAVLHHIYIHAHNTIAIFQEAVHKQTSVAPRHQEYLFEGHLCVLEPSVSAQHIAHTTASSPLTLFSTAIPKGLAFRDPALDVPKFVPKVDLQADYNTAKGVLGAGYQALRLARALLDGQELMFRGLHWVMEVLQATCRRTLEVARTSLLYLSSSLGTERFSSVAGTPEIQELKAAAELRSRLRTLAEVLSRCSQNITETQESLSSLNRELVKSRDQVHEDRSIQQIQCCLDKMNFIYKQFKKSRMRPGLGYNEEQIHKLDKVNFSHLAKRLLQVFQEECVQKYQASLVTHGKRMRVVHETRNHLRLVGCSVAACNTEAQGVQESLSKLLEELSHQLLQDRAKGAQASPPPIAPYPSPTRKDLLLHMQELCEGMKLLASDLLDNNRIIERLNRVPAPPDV
Description: Inhibition of human recombinant FLAG-IKKepsilon by TR-FRET assay

[2] = molecular target: T2, Inhibitor of nuclear factor kappa-B kinase subunit beta (Homo sapiens, UniProt O14920)
T2 sequence (O14920 whole entry): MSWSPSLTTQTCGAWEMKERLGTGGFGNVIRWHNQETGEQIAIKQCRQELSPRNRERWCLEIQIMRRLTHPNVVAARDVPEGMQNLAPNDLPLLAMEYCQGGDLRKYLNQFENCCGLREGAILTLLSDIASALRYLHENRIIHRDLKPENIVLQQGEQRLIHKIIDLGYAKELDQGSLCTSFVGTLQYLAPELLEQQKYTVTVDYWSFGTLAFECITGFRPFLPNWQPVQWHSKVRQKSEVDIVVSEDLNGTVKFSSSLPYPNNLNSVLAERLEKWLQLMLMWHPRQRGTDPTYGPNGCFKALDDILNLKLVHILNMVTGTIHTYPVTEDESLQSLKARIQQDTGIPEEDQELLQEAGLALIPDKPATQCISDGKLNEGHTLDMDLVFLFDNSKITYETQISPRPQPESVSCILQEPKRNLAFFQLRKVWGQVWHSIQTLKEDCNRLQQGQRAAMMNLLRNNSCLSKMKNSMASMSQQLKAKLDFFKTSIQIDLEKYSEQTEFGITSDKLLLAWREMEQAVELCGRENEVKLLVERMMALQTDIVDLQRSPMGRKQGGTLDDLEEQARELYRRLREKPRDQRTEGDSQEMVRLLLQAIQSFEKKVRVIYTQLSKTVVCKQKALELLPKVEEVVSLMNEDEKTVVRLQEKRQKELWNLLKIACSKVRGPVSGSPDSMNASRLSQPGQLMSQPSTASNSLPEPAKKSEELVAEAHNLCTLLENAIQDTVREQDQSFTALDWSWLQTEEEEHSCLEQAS
Description: Inhibition of human recombinant GST-IKKbeta by TR-FRET assay

Fibroblast = assay: Inhibition of NF-kappaB translocation in TNF-alpha-induced human lung fibroblast cells; type: functional, cell-based
PBMC = assay: Inhibition of LPS-stimulated TNFalpha release in PBMC; type: functional, cell-based; settings: Homo sapiens
[3] = Inhibition of LPS-stimulated IL6 release in PBMC; type: functional; settings: Homo sapiens

Row | Compound | IC50 [1] [µM] | IC50 [2] [µM] | Activity (Fibroblast) | IC50 (PBMC) [µM] | IC50 [3] [µM]
1 | NC(=O)c1cc(-c2ccccc2)cc(-c2ccc(S(=O)(=O)NNC3CC3)cc2)c1N | > 15.8 | 0.316 |  |  | 
2 | COc1c(C(N)=O)cc(-c2ccc(Cl)cc2)cc1-c1ccc(S(N)(=O)=O)cc1 [GSK-711701A] |  | > 15.8 |  |  | 
3 | NC(=O)c1cc(-c2ccccc2)cc(-c2ccc(S(=O)(=O)NNCCCN3CCOCC3)cc2)c1N | > 15.8 | 0.316 |  |  | 
4 | NC(=O)c1cc(-c2ccc(F)cc2)cc(-c2ccc(S(=O)(=O)N3CCCC3)cc2)c1N | > 15.8 | 0.631 |  |  | 
5 | CNC(=O)c1cc(-c2ccc(F)cc2)cc(-c2ccc(S(=O)(=O)N3CCCC3)cc2)c1N [GSK-635416A] |  | > 15.8 |  |  | 
6 | CS(=O)(=O)c1ccc(-c2cc(C(N)=O)c(N)c(-c3ccc(S(=O)(=O)N4CCCC4)cc3)c2)cc1 |  | 0.398 |  |  | 
7 | COc1ccc(-c2ccncc2)cc1C(N)=O [GSK-605714A] |  | > 15.8 |  |  | 
8 | COc1c(C(N)=O)cc(-c2ccncc2)cc1-c1ccccc1 |  | > 15.8 |  |  | 
9 | NC(=O)c1cc(-c2ccc(Cl)cc2)cc(-c2ccc(S(N)(=O)=O)cc2)c1N | > 15.8 | 0.1 | Active | 0.794 | 2
10 | CNS(=O)(=O)c1ccc(-c2cc(-c3ccccc3)cc(C(N)=O)c2O)cc1 | > 15.8 | 1 |  |  | 
11 | CN(C)S(=O)(=O)c1ccc(-c2cc(-c3ccncc3)cc(C(N)=O)c2O)cc1 | > 15.8 | 7.94 |  |  | 
12 | NC(=O)c1cc(-c2ccccc2)cc(-c2ccc(CS(N)(=O)=O)cc2)c1N | > 15.8 | 3.98 |  |  | 
13 | NC(=O)c1cc(-c2ccccc2)cc(-c2cccc(S(N)(=O)=O)c2)c1N | > 15.8 | 7.94 |  |  | 
14 | NC(=O)c1cc(-c2ccncc2)cc(-c2ccc(S(N)(=O)=O)cc2)c1N | 1.58 | 0.251 |  |  | 
15 | CS(=O)(=O)c1ccc(-c2cc(C(N)=O)c(N)c(-c3ccc(S(N)(=O)=O)cc3)c2)cc1 |  | 0.158 |  |  | 
16 | CS(=O)(=O)Nc1ccc(-c2cc(-c3ccccc3)cc(C(N)=O)c2N)cc1 [GSK-586581A] | > 15.8 | 1.58 |  |  | 
17 | COCCCNNS(=O)(=O)c1ccc(-c2cc(-c3ccccc3)cc(C(N)=O)c2N)cc1 | > 15.8 | 0.251 |  |  | 

Row | Compound | IC50 [1] [µM] | IC50 [2] [µM] | Activity (Fibroblast) | IC50 (PBMC) [µM] | IC50 [3] [µM]
18 | COc1c(C(N)=O)cc(-c2ccccc2)cc1-c1ccncc1 |  | > 15.8 |  |  | 
19 | NC(=O)c1cc(-c2ccc(F)cc2)ccc1N | > 15.8 | > 15.8 |  |  | 
20 | CS(=O)(=O)Nc1cccc(-c2cc(-c3ccccc3)cc(C(N)=O)c2N)c1 |  | 7.94 |  |  | 
21 | CS(=O)(=O)Nc1ccc(-c2cc(-c3ccc(Cl)cc3)cc(C(N)=O)c2N)cc1 | > 15.8 | 1.58 |  |  | 
22 | CN(C)c1cccc(-c2cc(-c3ccccc3)cc(C(N)=O)c2N)c1 | > 15.8 | > 15.8 |  |  | 
23 | NCCNNS(=O)(=O)c1ccc(-c2cc(-c3ccccc3)cc(C(N)=O)c2N)cc1 | > 15.8 | 0.158 |  |  | 
24 | CN(C)CCCNNS(=O)(=O)c1ccc(-c2cc(-c3ccccc3)cc(C(N)=O)c2N)cc1 | > 15.8 | 0.316 |  |  | 
25 | NC(=O)c1cc(-c2ccccc2)cc(-c2ccc(S(N)(=O)=O)cc2)c1N | > 15.8 | 0.251 |  |  | 
26 | CNC(=O)c1cc(-c2ccc(F)cc2)cc(-c2ccc(S(C)(=O)=O)cc2)c1N |  | > 15.8 |  |  | 
27 | NC(=O)c1cc(-c2ccc(F)cc2)cc(-c2ccncc2)c1N [GSK-620503A] | > 15.8 | 1.58 |  |  | 
28 | NC(=O)c1cc(-c2ccc(Cl)cc2)cc(-c2ccc(S(N)(=O)=O)cc2)c1O | > 15.8 | 1.58 |  |  | 
29 | NC(=O)c1cc(-c2ccncc2)cc(-c2ccccc2)c1N [GSK-625137A] | 3.98 | 3.98 |  |  | 
30 | NC(=O)c1cc(-c2ccc(F)cc2)cc(-c2ccc(S(N)(=O)=O)cc2)c1N | > 15.8 | 0.2 |  |  | 
31 | NC(=O)c1cc(-c2ccccc2)ccc1N | > 15.8 | 15.8 |  |  | 
32 | NC(=O)c1cc(-c2ccccc2)cc(-c2ccc(S(=O)(=O)NNCCN3CCCC3)cc2)c1N | > 15.8 | 0.251 |  |  | 
33 | COc1cc2ncn(-c3cc(OCc4ccccc4S(C)(=O)=O)c(C#N)s3)c2cc1OC [GSK-319347A] |  | > 15.8 |  |  | 

From ChEMBL document CHEMBL1145369, “The discovery of 2-amino-3,5-diarylbenzamide inhibitors of IKK-alpha and IKK-beta kinases” (Bioorg Med Chem Lett, 2007)
